In US20240051921A1, “CRYSTALLINE FORM OF A PHENOLIC TRPV1 AGONIST PRODRUG” (Concentric Analgesics, Inc., priority 2020, published 2024):

Assay: Dynamic vapor sorption (DVS) test, form stability as a function of relative humidity
Assay type: physicochemical
Details: 25° C.
Description: DVS test was performed using an SMS (Surface Measurement Systems) DVS Intrinsic instrument. The relative humidity at 25° C. were calibrated against deliquescence point of LiCl, Mg(NO3)2 and KCl. The following instrument parameters were used:
DVS test was performed on crystalline Compound 1, Form 1, to investigate its form stability as a function of relative humidity. The DVS test was first conducted at 25° C. with humidity cycled between 0% RH-95% RH-0% RH.

CNCC1CCCCN1C(=O)Oc1ccc(CNC(=O)CCCC/C=C/C(C)C)cc1OC.Cl (stereo not drawn) [Compound 1, Form 1, (E)-2-methoxy-4-((8-methylnon-6-enamido)methyl)phenyl 2-((methylamino)methyl)piperidine-1-carboxylate hydrochloride]
crystal form change before and after DVS test (XRPD) (0% RH-95% RH-0% RH, checked by XRPD): no form change occurred | moisture content (DVS) (at 95% RH, cycle 0% RH-95% RH-0% RH): 16.5 % wt | moisture content, relative stable platform (DVS) (between 20% RH and 70% RH): ~3.5 % wt
